Data reported in paper PMC5794853 (Scientific Reports, 2018).

How the values were obtained:
SaRelP = biological target: T1, SaRelP (Staphylococcus aureus, UniProt W8U368); assay: X-ray crystal structure; type: binding; details: active site (ATP site), Mg2+, 5 mM AMPCPP, non-hydrolysable ATP analogue
T1 construct: gene ywaC; full length, N-terminal hexahistidine tag, pET24d(+), expressed in E. coli BL21(DE3), homotetramer

[1] = biological target: RelP from Staphylococcus aureus (SaRelP) (Staphylococcus aureus strain Newman); assay: crystal structure; apo SaRelP, 15 mg/ml, sitting drop at room temperature, 0.1 M CHES pH 9.5, 40% (v/v) PEG600; 2.25 Å; homotetramer
BsRelQ [2] = biological target: T2, BsRelQ (Bacillus subtilis, UniProt O31611, H111A); assay: stimulation of ppGpp synthesis, HPLC; type: biochemical; details: allosteric activator, 200 µM; 5 mM ATP, 0.25 mM GDP/GTP, pH 7.5, 37 °C
T2 construct: gene yjbM; RelQ / SAS1, homotetramer

BsRelQ [3] = biological target: T3, BsRelQ (Bacillus subtilis, UniProt O31611, E113A); assay: stimulation of ppGpp synthesis, HPLC; type: biochemical; details: allosteric activator, 200 µM; 5 mM ATP, 0.25 mM GDP/GTP, pH 7.5, 37 °C
T3 construct: gene yjbM; RelQ / SAS1, homotetramer

BsRelQ [4] = biological target: T4, BsRelQ (Bacillus subtilis, UniProt O31611, E178A); assay: stimulation of ppGpp synthesis, HPLC; type: biochemical; details: allosteric activator, 200 µM; 5 mM ATP, 0.25 mM GDP/GTP, pH 7.5, 37 °C
T4 construct: gene yjbM; RelQ / SAS1, homotetramer

BsRelQ [5] = biological target: T5, BsRelQ (Bacillus subtilis, UniProt O31611); assay: stimulation of ppGpp synthesis, HPLC; type: biochemical; details: allosteric activator, 0-250 µM; 5 mM ATP, pH 7.5, 20 mM MgCl2
T5 construct: gene yjbM; RelQ / SAS1, homotetramer
T5 sequence (O31611 1-211): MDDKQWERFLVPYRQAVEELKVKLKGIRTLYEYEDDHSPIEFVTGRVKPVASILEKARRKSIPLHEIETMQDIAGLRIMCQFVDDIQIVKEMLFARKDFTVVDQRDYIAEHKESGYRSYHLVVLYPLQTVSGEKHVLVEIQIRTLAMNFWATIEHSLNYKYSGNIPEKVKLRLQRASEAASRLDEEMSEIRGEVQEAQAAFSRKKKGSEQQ

BsRelQ [6] = biological target: T6, BsRelQ (Bacillus subtilis, UniProt O31611, Q174A); assay: stimulation of ppGpp synthesis, HPLC; type: biochemical; details: allosteric activator, 200 µM; 5 mM ATP, 0.25 mM GDP/GTP, pH 7.5, 37 °C
T6 construct: gene yjbM; RelQ / SAS1, homotetramer

[7] = biological target: the molecule itself; assay: crystal structure; apo BsRelP, 10 mg/ml, sitting drop at room temperature, 0.1 M CHES pH 9.5, 30% (w/v) PEG 3000; 3.3 Å; homotetramer

T3 sequence (O31611 whole entry E113A): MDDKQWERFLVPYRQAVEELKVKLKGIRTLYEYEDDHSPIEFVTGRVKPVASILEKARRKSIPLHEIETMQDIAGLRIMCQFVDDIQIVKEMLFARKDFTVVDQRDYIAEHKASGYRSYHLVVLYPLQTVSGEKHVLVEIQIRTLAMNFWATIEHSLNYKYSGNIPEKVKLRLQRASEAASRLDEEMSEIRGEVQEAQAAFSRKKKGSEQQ
T4 sequence (O31611 whole entry E178A): as the sequence (O31611 whole entry E113A) above, with A113E, E178A counted along it
T2 sequence (O31611 whole entry H111A): as the sequence (O31611 whole entry E113A) above, with H111A, A113E counted along it
T6 sequence (O31611 whole entry Q174A): as the sequence (O31611 whole entry E113A) above, with A113E, Q174A counted along it

For `Nc1ncnc2c1ncn2[C@@H]1O[C@H](COP(=O)(O)CP(=O)(O)OP(=O)(O)O)[C@@H](O)[C@H]1O` [AMPCPP], the X-ray crystal structure (SaRelP) was “solve the structure of SaRelP in presence of AMPCPP”.

“RelP from Staphylococcus aureus (SaRelP) (enzyme)” was tested, and the stoichiometry N [1] was 4.

With `Nc1nc2c(ncn2[C@@H]2O[C@H](COP(=O)(O)OP(=O)(O)OP(=O)(O)O)[C@@H](OP(=O)(O)OP(=O)(O)O)[C@H]2O)c(=O)[nH]1` [pppGpp] the “stimulation of ppGpp synthesis, HPLC” value (BsRelQ [2]) was “Variation of His111 and Glu113 does not affect stimulation of BsRelQ”, the “stimulation of ppGpp synthesis, HPLC” value (BsRelQ [3]) was “Variation of His111 and Glu113 does not affect stimulation of BsRelQ” and the “stimulation of ppGpp synthesis, HPLC” value (BsRelQ [4]) was “upon replacement of Gln174 and Glu178 the pppGpp-stimulatory effect is decreased”. For the same molecule, the “stimulation of ppGpp synthesis, HPLC” value (BsRelQ [5]) was “determining the (p)ppGpp synthesis BsRelQ in presence of different concentrations of pppGpp” and the “stimulation of ppGpp synthesis, HPLC” value (BsRelQ [6]) was “upon replacement of Gln174 and Glu178 the pppGpp-stimulatory effect is decreased”.

B1: RelP from Bacillus subtilis (BsRelP) (enzyme, Bacillus subtilis PY79)
chain: MDLSVTHMDDLKTVMEDWKNELLVYKFALDALDTKFSIISQEYNLIHGHNPIEHTKSRVKSFESIVNKLMRKGCEITTKEMKEHIHDIAGVRIICSFISDIYNVVNVLKQHEDLRIVKVKDYIQTPKPNGYRSLHLIIEMPVNLTNRVEYVKAEIQIRTIAMDFWASLEHKIYYKLNNDVPKQLTDELKEAAEIAHYLDEKMLGIKKEVD
notes: RelP (SAS2, YwaC), small (p)ppGpp synthetase of Bacillus subtilis PY79, gene ywaC, amplified from genomic DNA; The strep-tag was encoded by the forward primer; cloned into pET24d(+) at NcoI/XhoI; No tag cleavage is described; also called SAS2; YwaC; source: E. coli BL21 (DE3), purified (StrepTrap, SEC)
For B1, the “stoichiometry N” value [7] was 4.
